Legend:
Assay in all cases: relative viability (nuclei count vs DMSO), 5 days (fraction); higher = more cells survive
Cediranib + Vorinostat = compound: COc1cc2c(Oc3ccc4[nH]c(C)cc4c3F)ncnc2cc1OCCCN1CCCC1 [Cediranib] + O=C(CCCCCCC(=O)Nc1ccccc1)NO [Vorinostat] (partner 1 µM)
Method in brief: (§1)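 One day after seeding in 1536-well plates, lung cancer cell lines were dosed by pin tool. Dosing was either single-drug or a fixed anchor-drug dose plus five library-drug doses (not always all listed) in √10 steps. After 5 days, nuclei were stained in one fix-and-stain step and counted on 4× images, and relative viability is the nuclei count of treated wells over that of vehicle wells, given as the median of duplicate plates.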

[1] = compound: O=C(C[C@H]1NCCC[C@@H]1O)Cn1cnc2cc(Br)c(Cl)cc2c1=O (racemic) [Halofuginone] + CCNC(=O)c1noc(-c2cc(C(C)C)c(O)cc2O)c1-c1ccc(CN2CCOCC2)cc1 [Luminespib] (partner 0.01 µM)
Method in brief: as §1

Cediranib + Linsitinib = compound: COc1cc2c(Oc3ccc4[nH]c(C)cc4c3F)ncnc2cc1OCCCN1CCCC1 [Cediranib] + C[C@]1(O)C[C@@H](c2nc(-c3ccc4ccc(-c5ccccc5)nc4c3)c3c(N)nccn32)C1 [Linsitinib] (partner 1 µM)
Method in brief: as §1

Cediranib + Tozasertib = compound: COc1cc2c(Oc3ccc4[nH]c(C)cc4c3F)ncnc2cc1OCCCN1CCCC1 [Cediranib] + Cc1cc(Nc2cc(N3CCN(C)CC3)nc(Sc3ccc(NC(=O)C4CC4)cc3)n2)n[nH]1 [Tozasertib] (partner 0.1 µM)
Method in brief: as §1

Row | Cell Line | relative viability (Cediranib + Vorinostat; first compound 0.04 µM) | relative viability (Cediranib + Vorinostat; first compound 0.1265 µM) | relative viability (Cediranib + Vorinostat; first compound 0.4 µM) | relative viability (Cediranib + Vorinostat; first compound 1.265 µM) | relative viability (Cediranib + Vorinostat; first compound 4 µM) | relative viability ([1]; first compound 0.001 µM) | relative viability ([1]; first compound 0.003162 µM) | relative viability ([1]; first compound 0.01 µM) | relative viability ([1]; first compound 0.03162 µM) | relative viability ([1]; first compound 0.1 µM) | relative viability (Cediranib + Linsitinib; first compound 0.04 µM) | relative viability (Cediranib + Linsitinib; first compound 0.1265 µM) | relative viability (Cediranib + Linsitinib; first compound 0.4 µM) | relative viability (Cediranib + Linsitinib; first compound 1.265 µM) | relative viability (Cediranib + Linsitinib; first compound 4 µM) | relative viability (Cediranib + Tozasertib; first compound 0.04 µM) | relative viability (Cediranib + Tozasertib; first compound 0.1265 µM) | relative viability (Cediranib + Tozasertib; first compound 0.4 µM) | relative viability (Cediranib + Tozasertib; first compound 1.265 µM) | relative viability (Cediranib + Tozasertib; first compound 4 µM)
1 | NCI-H358 | 0.689 | 1.05 | 0.638 | 0.705 | 0.648 | 0.306 | 0.455 | 0.229 | 0.205 | 0.154 | 0.919 | 0.745 | 0.681 | 0.717 | 0.899 | 0.123 | 0.0968 | 0.0956 | 0.105 | 0.101
2 | NCI-H1792 |  |  |  |  |  | 0.498 | 0.402 | 0.414 | 0.452 | 0.296 | 0.61 | 0.701 | 0.535 | 0.674 | 0.574 |  |  |  |  | 
3 | Calu-6 |  |  |  |  |  |  |  |  |  |  | 0.881 | 0.971 | 0.938 | 0.854 | 1.06 |  |  |  |  | 
4 | NCI-H1623 |  |  |  |  |  | 0.622 | 0.465 | 0.461 | 0.622 | 0.485 |  |  |  |  |  | 0.453 |  | 0.427 | 0.469 | 0.43
5 | NCI-H1299 |  |  |  |  |  |  |  |  |  |  | 1 | 0.977 | 0.96 | 0.988 | 0.947 |  |  |  |  | 
6 | ChaGo-K-1 | 0.719 | 0.377 | 0.719 | 0.757 | 0.808 | 0.683 | 0.712 | 0.713 | 0.563 | 0.563 |  |  |  |  |  | 0.214 | 0.263 | 0.236 | 0.202 | 0.209
7 | NCI-H1703 |  |  |  |  |  |  |  |  |  |  | 0.458 | 0.452 | 0.372 | 0.26 | 0.183 |  |  |  |  | 
8 | NCI-H522 | 0.842 | 0.472 | 0.925 | 0.817 | 0.811 | 1.14 | 1.81 | 1.12 | 1.28 | 1.09 |  |  |  |  |  | 0.687 | 0.465 | 0.541 | 0.535 | 0.51

From the supplement of paper PMC10307832
